PMC4264199, “Peptide Array on Cellulose Support—A Screening Tool to Identify Peptides with Dipeptidyl-Peptidase IV Inhibitory Activity within the Sequence of α-Lactalbumin” (International Journal of Molecular Sciences, 2014)
Ends that are not written are not given here.

What was measured:
[1] = molecular target: T1, dipeptidyl-peptidase IV (DPP-IV) (Homo sapiens, UniProt P27487); experiment: DPP-IV inhibition assay on SPOT-synthesized peptides (cleaved from cellulose membrane); format: biochemical; conditions: peptides cleaved from cellulose membrane, concentration not known (semi-quantitative), averages of four determinations from two experiments
T1 construct: purchased Creative BioMart (Shirley, NY, USA); host or cells: HEK293 human cells
T1 sequence (P27487 whole entry): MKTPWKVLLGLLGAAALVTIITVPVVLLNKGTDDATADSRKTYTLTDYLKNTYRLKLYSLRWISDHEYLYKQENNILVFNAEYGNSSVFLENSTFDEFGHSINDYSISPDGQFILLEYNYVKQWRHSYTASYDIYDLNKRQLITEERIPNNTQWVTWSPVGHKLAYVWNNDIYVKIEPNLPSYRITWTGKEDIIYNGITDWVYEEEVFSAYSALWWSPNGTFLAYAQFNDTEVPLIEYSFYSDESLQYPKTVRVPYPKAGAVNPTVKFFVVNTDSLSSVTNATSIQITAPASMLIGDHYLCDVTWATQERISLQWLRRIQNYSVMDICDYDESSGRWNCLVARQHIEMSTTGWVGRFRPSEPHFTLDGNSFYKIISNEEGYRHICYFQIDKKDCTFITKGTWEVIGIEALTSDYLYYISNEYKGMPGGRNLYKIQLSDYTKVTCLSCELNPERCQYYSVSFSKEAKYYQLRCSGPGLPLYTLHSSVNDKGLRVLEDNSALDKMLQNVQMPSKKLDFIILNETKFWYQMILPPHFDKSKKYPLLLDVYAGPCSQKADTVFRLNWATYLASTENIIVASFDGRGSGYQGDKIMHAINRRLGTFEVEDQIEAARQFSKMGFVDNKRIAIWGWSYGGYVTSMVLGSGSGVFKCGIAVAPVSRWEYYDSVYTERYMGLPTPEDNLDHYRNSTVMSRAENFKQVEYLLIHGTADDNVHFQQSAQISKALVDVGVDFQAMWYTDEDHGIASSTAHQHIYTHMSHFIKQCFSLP
From the text: (§1) Recombinant human dipeptidyl-peptidase IV (DPP-IV, EC 3.4.14.5, expressed in HEK293 human cells, >95% purity, activity >5500 pmoles Gly–Pro–7-amido-4-methylcoumarin/min/µg) was purchased from Creative BioMart (Shirley, NY, USA) while polyclonal goat DPP-IV antibody and polyclonal donkey anti-goat secondary antibody conjugated to horseradish peroxidase were obtained from R&D Systems (Minneapolis, MN, USA). Pierce™ ECL western blotting substrate and protein-free (TBS) blocking buffer were from Thermo Scientific (Rockford, IL, USA). Gly–Pro–p-nitroanilide (H-Gly–Pro–p-NA∙HCl) was purchased from Bachem Americas (Torrance, CA, USA). Synthesized peptides (≥95% purity) were prepared and purified by GL Biochem (Shanghai) Ltd. (Shanghai, China).
Peptide arrays of deca-peptides spanning the entire α-lactalbumin sequence with a frame shift of one amino acid between successive sequences were prepared by Kinexus Bioinformatics Corporation (Vancouver, BC, Canada). The peptides were synthesized from the C-terminal amino acid using the SPOT technology consisting of the stepwise coupling of the Fmoc-protected amino acids and cleavage of the side chain protection groups. The α-lactalbumin-derived peptides were synthesized on trioxatridecanediamine (TOTD) and β-alanine-modified Whatman 540 cellulose membranes for the binding and inhibition assays, respectively. For the inhibition assay, the peptides were synthesized in large dots (5–7 mm in diameter) and the quality of the synthesis was verified by HPLC analysis of quality controls spots included on the membranes.
In order to determine the effect of the SPOT-synthesized peptides on the activity of the DPP-IV enzyme, the peptides were first cleaved from the cellulose support by incubating the membranes with gaseous ammonia overnight. Peptide spots (5 mm in diameter) were then punched out using a single-hole punch and transferred into microcentrifuge tubes containing 150 µL of acetonitrile (50% in 100 mM Tris–HCl buffer pH 8.0). The peptide solution (50 µL) was pipetted into a 96-well microplate with 35 µL of the chromogenic substrate Gly–Pro–p-NA (0.29 mM in 100 mM Tris–HCl buffer pH 8.0). The mixture was pre-incubated for 10 min at 37 °C, whereupon 15 µL of DPP-IV (25 mU/mL) was added and the enzymatic reaction was carried out for 30 min at 37 °C. The reaction was then terminated by addition of 100 µL of 1 M sodium acetate buffer pH 4.0 and the absorbance of the released p-nitroaniline was measured at 405 nm using a Tecan Infinite® 200 Pro microplate reader (ESBE Scientific, Markham, ON, Canada). Positive and negative controls (DPP-IV activity with no inhibitor and no DPP-IV activity, respectively) were prepared using punched peptide-free cellulose spots from the same membrane used for peptide synthesis, and adding Tris-HCl buffer in place of the sample and in place of the sample and enzyme solution, respectively.
One unit of DPP-IV was defined as the concentration of enzyme that releases 1 µmol per min of p-nitroaniline from Gly–Pro–p-NA (100 µM) at 37 °C and pH 8.0.

[2] = molecular target: T1, dipeptidyl-peptidase IV (DPP-IV); experiment: DPP-IV inhibition assay on traditionally-synthesized peptides; format: biochemical; conditions: 250 µM of peptides (final assay concentration); averages of three determinations
From the text: as §1
The peptides were dissolved in a mixture of acetonitrile and H2O and further diluted in 100 mM Tris-HCl pH 8.0 buffer to the desired concentrations. In a 96-well microplate, 25 µL of sample were pre-incubated with 25 µL of 100 mM Tris-HCl pH 8.0 buffer and 35 µL of Gly–Pro–p-NA (0.29 mM in 100 mM Tris-HCl buffer pH 8.0) at 37 °C for 10 min. The enzymatic reaction was started by addition of 15 µL of DPP-IV solution (25 mU/mL) and carried out at 37 °C for 30 min. Sodium acetate buffer (1 M, pH 4.0, 100 µL) was added to stop the reaction and the absorbance of the released p-nitroaniline was measure at 405 nm using a Tecan Infinite® 200 Pro microplate reader. The positive and negative controls were prepared by using Tris-HCl buffer (100 mM, pH 8.0) in place of the sample and in place of the sample and enzyme solution, respectively.

[3] = molecular target: T1, dipeptidyl-peptidase IV (DPP-IV); experiment: Probing of membrane-bound peptide arrays: binding of DPP-IV to deca-peptides (immunoassay, chemiluminescence); conditions: peptide array on cellulose membrane, DPP-IV 10 μg/mL
Experimental: The interaction between the DPP-IV enzyme and deca-peptides spanning the entire α-lactalbumin sequence (Table S1) was first determined by immunoassay and visualized using an enhanced chemiluminescence substrate (Figure 1).
The membranes were first blocked with protein-free (Tris-buffered saline (TBS)) blocking buffer containing 0.05% Tween-20 for 4 h at room temperature and then incubated with DPP-IV (10 μg/mL in blocking buffer) overnight at 4 °C. The membranes were washed with TBS (50 mM Tris, 136 mM NaCl, 0.05% Tween-20, pH 8.0) four times for 15 min each, after which they were incubated with the polyclonal goat DPP-IV antibody (0.2 µg/mL) for 8 h at 4 °C. The membranes were once again washed with TBS four times for 15 min each prior to being incubated with anti-goat secondary antibody conjugated to horseradish peroxidase (0.1 µg/mL) overnight at 4 °C. Finally, the membranes were washed four more times for 15 min each; then a thin layer of chemiluminescence detection mixture, prepared according to the manufacturer’s instructions, was applied for 1 min and the luminescence generated from the spots on the membranes with bound DPP-IV was measured using a ChemiDoc™ MP system (Bio-Rad Laboratories (Canada) Ltd., Mississauga, ON, Canada).

[4] = molecular target: T1, dipeptidyl-peptidase IV (DPP-IV); experiment: Determination of the mode of inhibition and the inhibition constant (Ki); format: biochemical
Experimental: The traditionally-synthesized peptides showing the highest inhibitory activity against DPP-IV were further studied for their mode of action on the enzyme as previously described with the following modifications: the substrate (25 µL) was combined with 100 mM Tris-HCl buffer pH 8.0 (35 µL) and the sample (25 µL) and pre-incubated for 10 min at 37 °C, after which the enzymatic reaction was started by addition of the DPP-IV enzyme (15 µL of a 25 mU/mL solution).
The mode of inhibition and Ki values of the inhibitory peptides were determined by fitting the initial velocity versus substrate concentration data to nonlinear regression models using the GraphPad Prism software (version 6, GraphPad Software, San Diego, CA, USA). The Ki values are expressed as final assay concentrations.

Substance | Percent inhibition of DPP-IV activity, SPOT-synthesized deca-peptides [1] | inhibition at 250 µM [2] | further results
CKDDQNPHSS [F6, CKDDQNPHSS] | 15% | -3% | –
DTQAIVQNND [D4, DTQAIVQNND] | 14% | 2% | –
EQLTKCEVFR [A1, EQLTKCEVFR] | 11% | 10% | –
FHTSGYDTQA [C9, FHTSGYDTQA] | 12% | 2% | –
GYGGVSLPEW [B6, GYGGVSLPEW] | 17% | 8% | –
ICNISCDKFL [G6] | 31% | – | Binding of DPP-IV to cellulose-bound deca-peptide (in words) [3]: moderate or no binding
IPAVFKIDAL [K7, IPAVFKIDAL] | 25% | 48% | Ki [4]: 156 ± 11 µM
J3: α-lactalbumin-derived deca-peptide, residues 102–111 (Table S1) (DYWLAHKALC; UniProt P00709 121-130, looked up, fragment) | 15% | – | –
J4: α-lactalbumin-derived deca-peptide, residues 103–112 (Table S1) (YWLAHKALCS; UniProt P00711 122-131, looked up, fragment) | 20% | – | –
J5: α-lactalbumin-derived deca-peptide, residues 104–113 (Table S1) (WLAHKALCSE; UniProt P00711 123-132, looked up, fragment) | 16% | – | –
KALCSEKLDQ [J9] | 24% | – | –
KDDQNPHSSN [F7] | 16% | – | –
KIWCKDDQNP [F3] | 19% | – | –
KKILDKVGIN [I5] | 17% | – | Percent inhibition of DPP-IV activity, SPOT-synthesized deca-peptides ([1]; listed as KKILDKVGIN): less than 20%; Binding of DPP-IV to cellulose-bound deca-peptide (in words) [3]: strongest binding to DPP-IV
KLDQWLCEKL [K4] | 19% | – | –
LAHKALCSEK [J6, LAHKALCSEK] | 27% | 31% | Ki [4]: 217 ± 9 µM
LCSEKLDQWL [J11, LCSEKLDQWL] | 25% | 25% | Ki [4]: 217 ± 15 µM
LFQINNKIWC [E8] | 13% | – | –
LKPTPEGDLE [K6, LKPTPEGDLE] | 23% | 24% | Ki [4]: 729 ± 128 µM
NDSTEYGLFQ [E1] | 14% | – | –

Substance | Percent inhibition of DPP-IV activity, SPOT-synthesized deca-peptides [1] | inhibition at 250 µM [2] | further results
NKIWCKDDQN [F2] | 17% | – | –
NNDSTEYGLF [D11, NNDSTEYGLF] | 11% | – | –
NNKIWCKDDQ [F1] | 22% | – | –
NPHSSNICNI [F11, NPHSSNICNI] | 15% | – | –
QINNKIWCKD [E10, QINNKIWCKD] | 6% | – | –
QNNDSTEYGL [D10, QNNDSTEYGL] | 14% | – | –
QNPHSSNICN [F10, QNPHSSNICN] | 8% | 2% | –
RELKDLKGYG [A10] | 14% | – | –
SCDKFLDDDL [G10] | 21% | – | –
SEKLDQWLCE [K2] | 19% | – | –
SLPEWVCTTF [B11] | 9% | – | –
STEYGLFQIN [E3] | 13% | – | –
TEYGLFQINN [E4] | 9% | – | –
TSGYDTQAIV [C11, TSGYDTQAIV] | 14% | -1% | –
VFRELKDLKG [A8, VFRELKDLKG] | 14% | 3% | –
VKKILDKVGI [I4] | 18% | – | Percent inhibition of DPP-IV activity, SPOT-synthesized deca-peptides ([1]; listed as VKKILDKVGI): less than 20%; Binding of DPP-IV to cellulose-bound deca-peptide (in words) [3]: strongest binding to DPP-IV
VQNNDSTEYG [D9] | 13% | – | –
VSLPEWVCTT [B10] | 15% | – | –
YAEGTFISDY [K9, reference compound] | 24% | – | Binding of DPP-IV to cellulose-bound deca-peptide (in words) [3]: found to bind to DPP-IV
YGLFQINNKI [E6] | 11% | – | –
